PubChem BioAssay AID720632 (Broad Institute, 2013)
Active and inactive are the calls of the source. How the calls were made is not given here.

Target: Caspase-6 (Homo sapiens) (UniProt P55212)
Assay: human caspase-6 inhibitors, dose response, biochemical, VEID-R110 fluorescence, cherry-pick (AID 720632)
Conditions: caspase-6, VEID-R110 fluorogenic substrate; at 26 µM (top of the series)

Sequence of Caspase-6 (Homo sapiens) (P55212 24-179 limits assumed): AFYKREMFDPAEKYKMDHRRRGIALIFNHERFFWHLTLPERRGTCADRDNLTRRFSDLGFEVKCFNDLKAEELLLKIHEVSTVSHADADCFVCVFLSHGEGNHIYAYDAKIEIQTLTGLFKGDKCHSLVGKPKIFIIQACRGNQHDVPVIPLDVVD
Sequence of Caspase-6 (Homo sapiens) (P55212 194-293 limits assumed): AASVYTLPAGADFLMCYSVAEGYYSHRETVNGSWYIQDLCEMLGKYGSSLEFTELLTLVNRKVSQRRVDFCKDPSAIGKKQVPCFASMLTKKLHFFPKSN

SMILES | activity change, negative = inhibition
CCC(=O)Nc1c(C#N)c2nc3ccccc3nc2n1-c1ccc(C)cc1 | inactive
CC(C)CNC(=O)C1(C)CCCCCN1C(=O)c1cccnc1 (centres undefined) | inactive
C/C(=N\NC(=O)c1ccccc1O)c1ccc(NC(=O)Cc2ccccc2)cc1 | inactive
CCCC(=O)Nc1ccc2c(c1)OC[C@@H](C)N(C)C[C@@H](C)[C@H](OC)CN(C)C2=O | inactive
CN1C(=O)CCS(=O)(=O)C1c1ccc(Cl)c(Cl)c1 (centres undefined) | inactive
COc1cccc(C(=O)N2CCN(Cc3ccc(OC)cc3OC)CC2)c1 | inactive
Cc1ccc(NC(=O)C(c2ccccc2)N2CCN(CC(=O)N3CCOCC3)CC2)cc1Cl (centres undefined) | inactive
Clc1cccc(-c2nn3c(Cn4cnc5ccccc54)nnc3s2)c1 | inactive
COc1cc(OC)c(NS(=O)(=O)c2c(C)[nH]c(=O)[nH]c2=O)cc1Cl | inactive
C=CCOc1cccn2c(N(C=O)Cc3ccccc3)c(CC)nc12 | inactive
O=C(COc1ccc(S(=O)(=O)NC2CCCCC2)cc1Cl)NCc1ccc2c(c1)OCO2 | inactive
CCCC(=O)Nc1ccc2c(c1)OC[C@@H](C)NC[C@@H](C)[C@@H](OC)CN(C)C2=O | inactive
CC1CCc2[nH]c3ccc(C(=O)O)cc3c2C1 (centres undefined) | inactive
O=C(COC(=O)c1ccc([N+](=O)[O-])o1)Nc1ccc(N2CCOCC2)cc1 | inactive
Cn1c(=O)[nH]c(=O)c2c1nc(CN1CCOCC1)n2Cc1ccccc1 | inactive
Cc1ccn2c(=S)[nH]nc2c1 | inactive
CC(C)(C)NC(=O)C(=O)NN=C1CCCCCCCCCCC1 | inactive
CC(C)NC(=O)C1(C)CCN1C(=O)c1ccc2c(c1)OCO2 (centres undefined) | inactive
O=C(COC(=O)c1ccc([N+](=O)[O-])o1)Nc1ccc(F)cc1 | inactive
Cc1cc(C)cc(N(CC(=O)N2CCCCCC2)S(C)(=O)=O)c1 | inactive
CC(C)=NNc1cc([N+](=O)[O-])cc2c1C(=O)N(C)S2=O (centres undefined) | inactive
O=C([C@H]1[C@H](CO)[C@H]2Cn3c(cccc3=O)[C@H]2N1Cc1cc(F)ccc1F)N1CCOCC1 | inactive
CC(C)CNC(=O)C1(C)CCCN1C(=O)Cc1cccc2ccccc12 (centres undefined) | inactive
C#CCNC(=O)C[C@@H]1C[C@@]2(C(=O)OCC)CCC=C2N(Cc2ccc(Cl)cc2Cl)C1=O | inactive
CCc1ccc(NS(=O)(=O)c2cc(OC)ccc2OC)cc1 | inactive
COc1ccccc1C(=O)Nc1ccc2c(c1)OC[C@@H](C)N(CC1CC1)C[C@@H](C)[C@@H](OC)CN(C)C2=O | inactive
Cc1ccc(/C(N)=N/OC(=O)c2ccc3ccccc3c2)cc1 | inactive

SMILES | activity change, negative = inhibition
COc1cc(N)c2ncccc2c1Cl | inactive
CCCC(=O)Nc1ccc2c(c1)OC[C@@H](C)N(Cc1ccc(F)cc1)C[C@@H](C)[C@@H](OC)CN(C)C2=O | inactive
CC(=O)c1ccc(S(=O)(=O)N2CCN(C(=O)c3ccc(-n4cncn4)c([N+](=O)[O-])c3)CC2)cc1 | inactive
O=C(NCC1COc2ccccc2O1)c1ccc(F)c(S(=O)(=O)N2CCOCC2)c1 (centres undefined) | inactive
C[C@@H]1CN([C@H](C)CO)C(=O)c2cc(Br)cnc2O[C@H]1CN(C)CC1CCCC1 | inactive
CCC(=O)Nc1ccc2c(c1)OC[C@H](C)N(C(=O)CC)C[C@H](C)[C@H](OC)CN(C)C2=O | inactive
O=C(N/N=C/C1CC=CCC1)c1ccc(Cl)cc1O (centres undefined) | inactive
CCCCN(C(=O)c1cccc(-n2cccc2)c1)c1c(N)n(CCCC)c(=O)[nH]c1=O | inactive
CO[C@@H]1CN(C)C(=O)c2ccc(NC(=O)C3CC3)cc2OC[C@H](C)N(Cc2ccccc2)C[C@H]1C | inactive
CCN(Cc1ccccc1OC)CC1CCCN(CCc2cccc(OC)c2)C1 (centres undefined) | inactive
COc1cc(CNC(C)c2ccccc2)c(Br)cc1OCC(N)=O (centres undefined) | inactive
CO[C@@H]1CN(C)C(=O)c2ccc(NC(=O)C3CC3)cc2OC[C@@H](C)N(Cc2ccccc2)C[C@@H]1C | inactive
COc1cc(OC)c(OC)cc1CN1CCSCC1 | inactive
CC(C)CCn1c(=O)c2ccccc2n2c(CCC(=O)NCC3CCCO3)nnc12 (centres undefined) | inactive
CS(=O)(=O)c1ccc(Nc2nc(C(N)COCc3ccccc3)cs2)cc1 (centres undefined) | inactive
COc1ccc(-n2c(NNC(C)=O)nc3sc4c(c3c2=O)CCCC4)cc1 | inactive
CN1CCCCC(NC(=O)COCc2ccccc2)C1=O (centres undefined) | inactive
COc1cc2ccccc2cc1C(=O)N(CCN(C)C)c1nc2c(F)cc(F)cc2s1 | inactive
COc1cccc(/C=N/Nc2nc(C)cc(=O)[nH]2)c1OC | inactive
CCCCOc1ccc(C(=O)OCC(=O)N2CCOCC2)cc1 | inactive
O=C1Nc2cc(Cl)cnc2N2CCCC12 (centres undefined) | inactive
O=C(CCCn1c(=S)[nH]c2cc3c(cc2c1=O)OCO3)N1CCN(c2ccc(F)cc2)CC1 | inactive
Cc1ccccc1OC1(C)CCN(Cc2ccc(-c3ccccn3)cc2)C1 (centres undefined) | inactive
COc1ccccc1NS(=O)(=O)c1cc(C(=O)NC2CCN(Cc3ccccc3)CC2)ccc1C | inactive
CCN(CC)C(=O)COc1ccc(/C(C)=N/NC(=O)c2ccccc2O)cc1 | inactive
CCCC(=O)Nc1ccc2c(c1)OC[C@H](C)NC[C@@H](C)[C@@H](OC)CN(C)C2=O | inactive
CCN(CC)c1c([N+](=O)[O-])c(=O)n(CC)c2ccccc12 | inactive

SMILES | activity change, negative = inhibition
CC(C)(O)c1cn([C@@H]2C[C@@H]3O[C@@H](CO)CC[C@@H]3O[C@@H]2CCc2ccc(-c3ccncc3)cc2)nn1 | inactive
COc1ccccc1CN(C)C(=O)CN1CCN(CC(=O)Nc2ccccc2Cl)CC1 | inactive
O=C(Nc1ccc(NC(=O)C2CC2)cc1)c1cccs1 | inactive
CCOc1ccc(NC(=O)CN(C)C(=O)c2cc(C)nc3ccccc23)cc1OCC | inactive
COc1ccccc1C(=O)Nc1ccc2c(c1)OC[C@@H](C)N(CC1CC1)C[C@H](C)[C@H](OC)CN(C)C2=O | inactive
CO[C@@H]1CN(C)C(=O)c2ccc(NC(=O)C3CC3)cc2OC[C@H](C)N(Cc2cccc(F)c2)C[C@H]1C | inactive
O=C(CCN1C(=O)NC2(CCCC2)C1=O)Nc1cccc(S(=O)(=O)N2CCOCC2)c1 | inactive
COCCNc1nc(Nc2ccccc2Cl)c2sc(-c3ccccc3)cc2n1 | inactive
O=C(CCCn1c(=S)[nH]c2cc3c(cc2c1=O)OCO3)N1CCN(c2ccc(Cl)cc2)CC1 | inactive
CCN(CC)C1CCN(Cc2c(C(=O)N3CCCCCCC3)nc3ccc(Cl)cn23)C1 (centres undefined) | inactive
Cc1ccc(NC(=O)c2ccc([N+](=O)[O-])o2)cc1S(=O)(=O)N1CCOCC1 | inactive
OC(c1ccc(F)cc1)c1ncc(-c2ccccc2F)[nH]1 (centres undefined) | inactive
CCOCCCNC(=O)C1c2ccccc2Oc2ccccc21 | inactive
Cc1ccc(NC(=O)c2ocnc2C)cc1Cl | inactive
O=C(N/N=C/c1cccnc1)c1cc(O)c(O)c(O)c1 | inactive
COc1ccc2c(C#N)c3ccccn3c2c1 | inactive
COc1cccc(CN2CCc3[nH]c(=S)[nH]c(=O)c3C2)c1 | inactive
COc1ccc(N2C(=O)Cc3ccccc3C2=O)cc1 | inactive
CCCCn1c(N)c(N(CCC(C)C)C(=O)COC(=O)c2ccc([N+](=O)[O-])s2)c(=O)[nH]c1=O | inactive
O=C(NC1CC2CCC(C1)N2Cc1ccccc1)c1ccccc1Br (centres undefined) | inactive
O=C(Cn1cncn1)NCCCc1ccccc1 | inactive
COc1ccc(N(C)S(=O)(=O)c2cccc(C(=O)NCC(c3cccs3)N(C)C)c2)cc1 (centres undefined) | inactive
O=C(Nc1cccc(C(=O)N2CCOCC2)c1)c1ccc([N+](=O)[O-])cc1 | inactive
CCCC(=O)Nc1ccc2c(c1)OC[C@@H](C)NC[C@H](C)[C@@H](OC)CN(C)C2=O | inactive
CC(C)CN1CCC(CN2CCNC(=O)C2=O)CC1 | inactive
